# Reference: paper PMC10517971, “An inverse agonist of orphan receptor GPR61 acts by a G protein-competitive allosteric mechanism” (Nature Communications, 2023)
# pIC50: −log10 of the molar value.
# How the values were obtained:
# Human PDE3A1 = Human PDE3A1 (Homo sapiens, UniProt Q14432); assay: Phosphodiesterase Assay (SPA); assay type: biochemical
# Method: (§1) 45 37 °C for 30 min (DAT) or 60 min (NET and SER T). The plate is transferred to the FLIPR Tetra®
# (§2) 46 instrument and the fluorescence of each well was measured (Ex 470- 495 […]).
# (§3) 47 The level of fluores cenc e measured dire ctly relates to the level of uptake of the dye labelled amine,
# (§4) 48 with a reduction in levels being related to an inhibition of the respective transporter.
# (§5) 49 Phosphodiesterase Assays
# (§6) 50 The phosphodiesteras e (P DE) assays m easure the conversion of 3’, 5 ’ -[3H ] cAMP to 5’-[3H] AMP
# (§7) 51 (for PDE 3A1 and 4D3) or 3’, 5’-[3H] cGMP to 5’-[3H] GMP (for 5A1) by the relevant PDE
# (§8) 52 enzyme subtype. Yttrium silicate (YSi) scintillation proximity (SPA) beads bind selectively to 5’-
# (§9) 53 [3H] AMP or 5’-[3H] GMP, with the magnitude of radioactive counts being directly related to
# (§10) 54 PDE enzymatic activity. The ass ay was performed in white walled op aque b ottom 384-well plates.
# (§11) 55 Test compound (1 µL) in dimethyl sulfoxide was added to each well. Enzyme solution was then
# (§12) 56 added to each well in buffer (in mM: Trizma, 50 (pH7.5); MgCl2, 1.3 mM) containing Brij 35
# (§13) 57 (0.01% (v/v)). Subsequently, 20 µL of 3’,5’-[3H] cGMP (125 nM) or 20 µL of 3’,5’-[3H] cAMP
# (§14) 58 (50 nM) was added to each well to start the reaction and the plate was incubated for 30 min at
# (§15) 59 25 °C. The reaction was terminated by the addition of 20 µL of PDE YSi SPA beads (Perkin Elmer,
# (§16) 60 Waltham, MA). Followin g an additional 8 h incubation period the plates were read on a MicroBeta
# (§17) 61 radioactive plat e counter (Perkin Elmer, Waltham, MA, USA) to determine radioactive counts per
# (§18) 63 Bromodomain-Containing Protein 4 (BRD4) Binding Assay
# (§19) 64 The BRD4 fluorescent polarization binding assay uses purified His-tagged BRD4 protein and its
# (§20) 65 interaction with a Cy5 labelled small molecule probe that binds to the BRD4 site involved in the
# (§21) 66 interaction with tetra-acetylated histone H4 peptide. In brief, the assay is performed in low volume
# Human PDE4D3 = Human PDE4D3 (Homo sapiens, UniProt Q08499); assay: Phosphodiesterase Assay (SPA); assay type: biochemical
# Method: as §1, §2, §3, §4, §5, §6, §7, §8, §9, §10, §11, §12, §13, §14, §15, §16, §17, §18, §19, §20, §21
# Human PDE5A1 = Human PDE5A1 (Homo sapiens, UniProt O76074); assay: Phosphodiesterase Assay (SPA); assay type: biochemical
# Method: as §1, §2, §3, §4, §5, §6, §7, §8, §9, §10, §11, §12, §13, §14, §15, §16, §17, §18, §19, §20, §21
# panel of GPCRs = assay: GPCR selectivity panel; assay type: cell-based
# Method: A homogeneous Time-Resolved Fluorescence (HTRF) assay (Perkin Elmer, Dynamic2 kit #) was used to assess receptor basal and inverse agonist activity at human GPR61, GPR62, and GPR101. For routine inverse agonist screening frozen CHO TREx human GPR61, GPR62 and GPR101 cells were used. Cells were thawed, resuspended in complete assay media (DMEM F-12, 10% HI FBS, 100 μg/mL Normocin, 700 μg/mL Hygromycin B and 15 μg/mL Blasticidin) containing 1ug/ml doxycycline, plated in white 384 well plates (Corning, 3570) at a density of 750 cells/well (25 μl/ well) and cultured at 37 °C in an incubator overnight. For studies assessing basal and inverse agonist activity at human GPR61 mutants, CHO-K1 cells were transiently transfected using Fugene6, plated in white 384 well plates (7500 cells/well) and grown overnight at 37 °C, as described for receptor expression studies. […] Data were analyzed using the ratio of fluorescence intensity at 620 and 665 nm for each well, extrapolated from the cAMP standard curve to express data as nM cAMP for each well. […]
# 7 recepto r activities wer e measured using FL IPR® Calcium Assays. […]
# 11 measured using a cal cium specific dye. […]
# 18 change in fluorescence from baseline over a 60 second period (Excitation 470- 495 nm; Emission […]
# 20 Tetra® instrument to evaluate antagonist activity, with the change in fluorescence from baseline
# 21 being measured over a 60 second period. […]
# Chain of Human PDE3A1 (Q14432 whole entry): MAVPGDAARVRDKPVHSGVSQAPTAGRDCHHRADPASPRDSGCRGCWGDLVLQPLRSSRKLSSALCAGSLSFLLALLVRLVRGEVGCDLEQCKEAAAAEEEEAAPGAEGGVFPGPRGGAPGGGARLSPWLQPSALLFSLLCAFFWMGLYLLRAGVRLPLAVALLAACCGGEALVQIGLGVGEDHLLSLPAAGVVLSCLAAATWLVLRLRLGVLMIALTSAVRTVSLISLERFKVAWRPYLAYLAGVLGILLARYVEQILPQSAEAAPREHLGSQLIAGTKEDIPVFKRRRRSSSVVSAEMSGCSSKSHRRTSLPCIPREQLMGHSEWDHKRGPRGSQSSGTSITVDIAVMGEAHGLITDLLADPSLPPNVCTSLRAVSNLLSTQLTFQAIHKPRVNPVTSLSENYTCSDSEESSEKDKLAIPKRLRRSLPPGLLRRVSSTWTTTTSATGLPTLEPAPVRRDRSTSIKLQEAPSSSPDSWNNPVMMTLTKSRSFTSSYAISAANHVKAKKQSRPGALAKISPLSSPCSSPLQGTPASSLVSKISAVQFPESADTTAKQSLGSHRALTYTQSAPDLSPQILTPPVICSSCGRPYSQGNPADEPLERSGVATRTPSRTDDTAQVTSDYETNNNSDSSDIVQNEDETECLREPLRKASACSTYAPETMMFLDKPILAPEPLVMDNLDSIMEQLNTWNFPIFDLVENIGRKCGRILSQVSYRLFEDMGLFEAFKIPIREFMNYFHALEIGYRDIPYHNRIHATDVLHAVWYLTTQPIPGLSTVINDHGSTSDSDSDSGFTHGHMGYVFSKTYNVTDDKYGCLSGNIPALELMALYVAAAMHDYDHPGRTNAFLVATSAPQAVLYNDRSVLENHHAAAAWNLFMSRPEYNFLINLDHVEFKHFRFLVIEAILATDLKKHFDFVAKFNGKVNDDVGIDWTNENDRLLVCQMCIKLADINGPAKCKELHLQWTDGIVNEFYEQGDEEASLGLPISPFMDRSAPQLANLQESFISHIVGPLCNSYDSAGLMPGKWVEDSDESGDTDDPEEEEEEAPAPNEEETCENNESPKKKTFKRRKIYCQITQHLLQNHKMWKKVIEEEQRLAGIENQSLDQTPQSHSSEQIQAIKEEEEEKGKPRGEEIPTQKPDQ
# Chain of Human PDE4D3 (Q08499 1-673 isoform Q08499-2): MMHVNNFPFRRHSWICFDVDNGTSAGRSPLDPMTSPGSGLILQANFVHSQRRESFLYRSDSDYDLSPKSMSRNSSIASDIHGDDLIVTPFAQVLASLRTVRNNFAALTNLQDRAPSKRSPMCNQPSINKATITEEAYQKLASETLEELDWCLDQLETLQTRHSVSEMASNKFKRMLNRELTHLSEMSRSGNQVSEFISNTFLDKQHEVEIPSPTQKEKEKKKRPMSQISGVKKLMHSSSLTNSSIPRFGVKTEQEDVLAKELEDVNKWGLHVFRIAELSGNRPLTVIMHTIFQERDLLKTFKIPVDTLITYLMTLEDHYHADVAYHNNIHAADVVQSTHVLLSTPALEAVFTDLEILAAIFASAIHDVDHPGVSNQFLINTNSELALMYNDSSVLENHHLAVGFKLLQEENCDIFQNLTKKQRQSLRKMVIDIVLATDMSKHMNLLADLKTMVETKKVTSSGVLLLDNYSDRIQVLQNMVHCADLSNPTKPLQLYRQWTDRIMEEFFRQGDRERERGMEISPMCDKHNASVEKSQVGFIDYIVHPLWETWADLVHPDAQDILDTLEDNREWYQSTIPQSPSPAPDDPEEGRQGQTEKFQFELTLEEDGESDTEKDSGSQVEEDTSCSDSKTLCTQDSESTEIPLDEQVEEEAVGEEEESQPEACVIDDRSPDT
smiles,measurement,setting,value
CCOc1cc(C)nc(N(CCOC)S(=O)(=O)c2ccc(NCc3c(F)cncc3F)nc2OC)n1 [Compound 1],pIC50,Human PDE3A1,4.74
same,pIC50,Human PDE4D3,< 4.46
same,pIC50,Human PDE5A1,3.81
same,pIC50,"panel of GPCRs; panel of GPCRs, read-out: off-target IC50 values",< 5.00
same,selectivity for GPR61,panel of GPCRs; panel of common off-target GPCRs and related receptors GPR62 and GPR101,selective
